Measured values as given in US9296734B2 (AMGEN INC., priority 2013, dated 2016).
Read-outs that look alike come from different tables or passages of the source.

Columns and labels:
[1] = biological target: Beta Secretase enzyme (BACE) (Homo sapiens (Human), UniProt P56817); experiment: In vitro enzymatic BACE FRET assay; assay type: biochemical; settings: read-out: BACE 1 FRET assay IC50
In short: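 A quenched fluorophore-peptide spanning the BACE cleavage site served as substrate at 50 nM, with one-hour incubation in pH 4.2 acetate buffer containing 100 uM genapol and 10% DMSO final. Fluorescence was measured after quenching with Tris to neutral pH.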

[2] = tested on: Aβ40 in conditioned medium of cells stably expressing Amyloid Precursor Protein (APP); experiment: In vitro BACE cell-based assay (Aβ40 sandwich ELISA); settings: Homo sapiens
In short: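 Aβ40 in supernatants was measured by time-resolved fluorescence sandwich ELISA using pAb40 capture and biotinylated 6E10 detection, with antibody incubations at 4 °C. Stable APP cells were exposed to compounds for 24 h in a 10-point series (top dose 100 or 10 µM, 0.1% DMSO). IC50 was fitted from the concentration-response.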

[3] = biological target: Cathepsin D (Cat D) (Homo sapiens (Human), UniProt P07339); experiment: In vitro enzymatic Cathepsin D (Cat D) FRET assay; assay type: biochemical; settings: read-out: CatD IC50
In short: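 CHO-expressed recombinant Cat D cleaves a fluorophore/quencher FRET peptide (20 nM) in 0.05 M citrate pH 3.5, 5 mM CHAPS, 10% DMSO final, over 1 h. Tris addition neutralizes pH to stop the reaction; fluorescence read at excitation 500 nm, emission 580 nm.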

[4] = average IC50, BACE enzyme assay
[5] = HEK293, average IC50, HEK cell assay, read-out: HEK cell assay IC50
[6] = average IC50, cathepsin D enzyme assay
[7] = HEK293, HEK cells, average, read-out: HEK cell assay IC50
[8] = HEK293, average IC50, HEK cells, read-out: HEK cell assay IC50

Chain of Cathepsin D (Cat D) (P07339 65-412, species assumed): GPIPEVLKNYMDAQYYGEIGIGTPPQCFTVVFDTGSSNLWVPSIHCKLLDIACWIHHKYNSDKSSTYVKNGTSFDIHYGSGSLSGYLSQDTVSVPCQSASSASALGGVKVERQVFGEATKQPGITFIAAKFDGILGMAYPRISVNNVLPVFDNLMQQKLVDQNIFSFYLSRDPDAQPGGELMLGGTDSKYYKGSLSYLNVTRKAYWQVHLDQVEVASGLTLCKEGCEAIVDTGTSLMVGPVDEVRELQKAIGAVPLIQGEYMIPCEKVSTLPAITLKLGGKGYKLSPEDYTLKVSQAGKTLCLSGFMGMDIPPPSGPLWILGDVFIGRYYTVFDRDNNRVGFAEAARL
Chain of Beta Secretase enzyme (BACE) (P56817 46-501): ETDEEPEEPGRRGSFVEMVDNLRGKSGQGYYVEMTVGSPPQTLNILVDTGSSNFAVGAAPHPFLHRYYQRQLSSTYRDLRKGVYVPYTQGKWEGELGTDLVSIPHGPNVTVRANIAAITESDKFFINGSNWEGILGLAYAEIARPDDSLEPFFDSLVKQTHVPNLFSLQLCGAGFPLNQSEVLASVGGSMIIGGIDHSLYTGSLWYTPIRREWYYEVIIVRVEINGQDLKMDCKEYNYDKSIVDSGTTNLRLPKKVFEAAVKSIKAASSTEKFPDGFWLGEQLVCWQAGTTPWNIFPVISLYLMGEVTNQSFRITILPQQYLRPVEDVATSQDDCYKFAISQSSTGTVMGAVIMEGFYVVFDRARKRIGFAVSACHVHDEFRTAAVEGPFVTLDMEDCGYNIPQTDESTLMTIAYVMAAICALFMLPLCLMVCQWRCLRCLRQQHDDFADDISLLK

| Structure (SMILES) | IC50 ([1]; average) | IC50 [2, 7] | IC50 ([3]; average) | IC50 ([1]; average IC50) | IC50 [2, 8] | IC50 ([3]; average IC50) | other results |
| --- | --- | --- | --- | --- | --- | --- | --- |
| NC1=N[C@](CF)(c2cc(-c3ccc4ccc(F)cc4n3)ccc2F)C[C@@H](C(F)(F)F)O1 [Example 117, (4S,6S)-4-(2-fluoro-5-(7-fluoroquinolin-2-yl)phenyl)-4-(fluoromethyl)-6-(trifluoromethyl)-5,6-dihydro-4H-1,3-oxazin-2-amine] | – | – | – | – | – | – | IC50 [1, 4]: > 40 µM; IC50 [2, 5]: > 15.6 µM; IC50 [3, 6]: > 133 µM |
| NC1=N[C@](CF)(c2cc(-c3cncc(-c4nnco4)c3)ccc2F)C[C@@H](C(F)(F)F)O1 [Example 118, (4S,6S)-4-(5-(5-(1,3,4-oxadiazol-2-yl)pyridin-3-yl)-2-fluorophenyl)-4-(fluoromethyl)-6-(trifluoromethyl)-5,6-dihydro-4H-1,3-oxazin-2-amine] | – | – | – | – | – | – | IC50 [1, 4]: 8.36 µM; IC50 [2, 5]: > 15.6 µM; IC50 [3, 6]: 454 µM |
| COC1CCN(C(=O)Nc2ccc(F)c([C@]3(C)C[C@@H](C(F)(F)F)OC(N)=N3)c2)CC1 [Example 119, N-(3-((4S,6S)-2-amino-4-methyl-6-(trifluoromethyl)-5,6-dihydro-4H-1,3-oxazin-4-yl)-4-fluorophenyl)-4-methoxypiperidine-1-carboxamide] | – | – | – | – | – | – | IC50 [1, 4]: 55.8 µM; IC50 [2, 5]: 2.08 µM; IC50 [3, 6]: > 400 µM |
| C[C@@]1(c2cc(NC(=O)N3CC=CCC3)ccc2F)C[C@@H](C(F)(F)F)OC(N)=N1 [Example 123, N-(3-((4S,6S)-2-amino-4-methyl-6-(trifluoromethyl)-5,6-dihydro-4H-1,3-oxazin-4-yl)-4-fluorophenyl)-5,6-dihydropyridine-1(2H)-carboxamide] | – | – | – | – | – | – | IC50 [1, 4]: 11.5 µM; IC50 [2, 5]: 0.908 µM; IC50 [3, 6]: > 400 µM |
| N#Cc1ccc(C#Cc2ccc(F)c([C@]3(CF)C[C@@H](C(F)(F)F)OC(N)=N3)c2)nc1 [Example 125, 6-((3-((4S,6S)-2-amino-4-(fluoromethyl)-6-(trifluoromethyl)-5,6-dihydro-4H-1,3-oxazin-4-yl)-4-fluorophenyl)ethynyl)nicotinonitrile] | 0.509 µM | 0.509 µM | > 400 µM | – | – | – | – |
| CNC(=O)c1ccc(C#Cc2ccc(F)c([C@]3(CF)C[C@@H](C(F)(F)F)OC(N)=N3)c2)nc1 [Example 126, 6-((3-((4S,6S)-2-amino-4-(fluoromethyl)-6-(trifluoromethyl)-5,6-dihydro-4H-1,3-oxazin-4-yl)-4-fluorophenyl)ethynyl)-N-methylnicotinamide] | 26.6 µM | 7.46 µM | > 400 µM | – | – | – | – |
| NC1=N[C@](CF)(c2cc(C#Cc3ccc(OC4CCC4)cn3)ccc2F)C[C@@H](C(F)(F)F)O1 [Example 128, (4S,6S)-4-(5-((5-cyclobutoxypyridin-2-yl)ethynyl)-2-fluorophenyl)-4-(fluoromethyl)-6-(trifluoromethyl)-5,6-dihydro-4H-1,3-oxazin-2-amine] | 20.5 µM | 5.98 µM | 1060 µM | – | – | – | – |
| CNC(=O)c1ccnc(C#Cc2ccc(F)c([C@]3(CF)C[C@@H](C(F)(F)F)OC(N)=N3)c2)c1 [Example 129, 2-((3-((4S,6S)-2-amino-4-(fluoromethyl)-6-(trifluoromethyl)-5,6-dihydro-4H-1,3-oxazin-4-yl)-4-fluorophenyl)ethynyl)-N-methylisonicotinamide] | > 40 µM | > 15.6 µM | > 400 µM | – | – | – | – |
| NC1=N[C@](CF)(c2cc(C#Cc3cccc4[nH]ccc34)ccc2F)C[C@@H](C(F)(F)F)O1 [Example 130, (4S,6S)-4-(5-((1H-indol-4-yl)ethynyl)-2-fluorophenyl)-4-(fluoromethyl)-6-(trifluoromethyl)-5,6-dihydro-4H-1,3-oxazin-2-amine] | 5.62 µM | 2.08 µM | 578 µM | – | – | – | – |
| NC1=N[C@](CF)(c2cc(C#Cc3ccc4[nH]ccc4c3)ccc2F)C[C@@H](C(F)(F)F)O1 [Example 131, (4S,6S)-4-(5-((1H-indol-5-yl)ethynyl)-2-fluorophenyl)-4-(fluoromethyl)-6-(trifluoromethyl)-5,6-dihydro-4H-1,3-oxazin-2-amine] | 0.577 µM | 1.81 µM | 381 µM | – | – | – | – |
| NC1=N[C@](CF)(c2cc(C#Cc3ccc4cc[nH]c4c3)ccc2F)C[C@@H](C(F)(F)F)O1 [Example 132, (4S,6S)-4-(5-((1H-indol-6-yl)ethynyl)-2-fluorophenyl)-4-(fluoromethyl)-6-(trifluoromethyl)-5,6-dihydro-4H-1,3-oxazin-2-amine] | 2.2 µM | 3.1 µM | 721 µM | – | – | – | – |
| NC1=N[C@](CF)(c2cc(C#Cc3cccc4cc[nH]c34)ccc2F)C[C@@H](C(F)(F)F)O1 [Example 133, (4S,6S)-4-(5-((1H-indol-7-yl)ethynyl)-2-fluorophenyl)-4-(fluoromethyl)-6-(trifluoromethyl)-5,6-dihydro-4H-1,3-oxazin-2-amine] | 5.6 µM | 4.6 µM | 1130 µM | – | – | – | – |
| N#Cc1ccc(C(=O)Nc2ccc(F)c([C@]3(CF)C[C@@H](C(F)(F)F)OC(N)=N3)n2)nc1 [Example 134, N-(6-((4S,6S)-2-amino-4-(fluoromethyl)-6-(trifluoromethyl)-5,6-dihydro-4H-1,3-oxazin-4-yl)-5-fluoropyridin-2-yl)-5-cyanopicolinamide] | – | – | – | – | – | – | IC50 [1, 4]: 0.079 µM; IC50 [2, 5]: 0.055 µM; IC50 [3, 6]: > 400 µM |
| NC1=N[C@](CF)(c2nc(NC(=O)c3ccc(Cl)cn3)ccc2F)C[C@@H](C(F)(F)F)O1 [Example 136, N-(6-((4S,6S)-2-amino-4-(fluoromethyl)-6-(trifluoromethyl)-5,6-dihydro-4H-1,3-oxazin-4-yl)-5-fluoropyridin-2-yl)-5-chloropicolinamide] | – | – | – | 32 µM | > 15.6 µM | > 400 µM | IC50 [1, 4]: 0.169 µM; IC50 [2, 5]: 0.132 µM; IC50 [3, 6]: 717 µM |
| NC1=N[C@](CF)(c2cc(N)cnc2F)C[C@@H](C(F)(F)F)O1 [Example 138, (4S,6S)-4-(5-amino-2-fluoropyridin-3-yl)-4-(fluoromethyl)-6-(trifluoromethyl)-5,6-dihydro-4H-1,3-oxazin-2-amine] | – | – | – | > 40 µM | > 15.6 µM | > 400 µM | – |
| NC1=N[C@](CF)(c2cc(NC(=O)c3ccc(Cl)cn3)cnc2F)C[C@@H](C(F)(F)F)O1 [Example 139, N-(5-((4S,6S)-2-amino-4-(fluoromethyl)-6-(trifluoromethyl)-5,6-dihydro-4H-1,3-oxazin-4-yl)-6-fluoropyridin-3-yl)-5-chloropicolinamide] | – | – | – | 0.0965 µM | – | > 400 µM | IC50 ([2]; HEK293, read-out: HEK cell assay IC50): 0.418 µM |
| Cc1cc(C#N)cnc1C(=O)Nc1cnc(F)c([C@]2(CF)C[C@@H](C(F)(F)F)OC(N)=N2)c1 [Example 140, N-(5-((4S,6S)-2-amino-4-(fluoromethyl)-6-(trifluoromethyl)-5,6-dihydro-4H-1,3-oxazin-4-yl)-6-fluoropyridin-3-yl)-5-cyano-3-methylpicolinamide] | – | – | – | 0.113 µM | 0.338 µM | > 400 µM | – |
| N#Cc1ccc(C(=O)Nc2cnc(F)c([C@]3(CF)C[C@@H](C(F)(F)F)OC(N)=N3)c2)nc1 [Example 141, N-(5-((4S,6S)-2-amino-4-(fluoromethyl)-6-(trifluoromethyl)-5,6-dihydro-4H-1,3-oxazin-4-yl)-6-fluoropyridin-3-yl)-5-cyanopicolinamide] | – | – | – | 0.171 µM | 0.639 µM | 1790 µM | – |
| COc1ccc(C(=O)Nc2cnc(F)c([C@]3(CF)C[C@@H](C(F)(F)F)OC(N)=N3)c2)nc1 [Example 142, N-(5-((4S,6S)-2-amino-4-(fluoromethyl)-6-(trifluoromethyl)-5,6-dihydro-4H-1,3-oxazin-4-yl)-6-fluoropyridin-3-yl)-5-methoxypicolinamide] | – | – | – | 0.114 µM | 0.587 µM | 5520 µM | – |
| NC1=N[C@](CF)(c2cccc(NC(=O)c3ccc(Cl)cn3)c2)C[C@@H](C(F)(F)F)O1 [Example 143, N-(3-((4S,6S)-2-amino-4-(fluoromethyl)-6-(trifluoromethyl)-5,6-dihydro-4H-1,3-oxazin-4-yl)phenyl)-5-chloropicolinamide] | – | – | – | 0.117 µM | 0.154 µM | 2370 µM | – |
| N#Cc1ccc(C(=O)Nc2cccc([C@]3(CF)C[C@@H](C(F)(F)F)OC(N)=N3)c2)nc1 [Example 144, N-(3-((4S,6S)-2-amino-4-(fluoromethyl)-6-(trifluoromethyl)-5,6-dihydro-4H-1,3-oxazin-4-yl)phenyl)-5-cyanopicolinamide] | – | – | – | 0.0892 µM | 0.067 µM | 665 µM | – |
| NC1=N[C@](CF)(c2cccc(Nc3nccc4cc(Cl)cnc34)c2)C[C@@H](C(F)(F)F)O1 [Example 146, (4S,6S)-4-(3-((3-chloro-1,7-naphthyridin-8-yl)amino)phenyl)-4-(fluoromethyl)-6-(trifluoromethyl)-5,6-dihydro-4H-1,3-oxazin-2-amine] | – | – | – | 0.067 µM | 0.119 µM | 733 µM | – |
| COc1ncc(NC(=O)c2ccc(Cl)cn2)cc1[C@]1(C)C[C@@H](C(F)(F)F)OC(N)=N1 [Example 147, N-(5-((4S,6S)-2-amino-4-methyl-6-(trifluoromethyl)-5,6-dihydro-4H-1,3-oxazin-4-yl)-6-methoxypyridin-3-yl)-5-chloropicolinamide] | – | – | – | 0.249 µM | 0.119 µM | 1420 µM | – |
